In patent publication US20190010182A1, “SALT OF (SS)-ADENOSYL METHIONINE WITH INOSITOL HEXAPHOSPHATE, AND PROCESS FOR THE PREPARATION THEREOF” (GNOSIS S.p.A., priority 2017, published 2019):

How the values were obtained:
[1] = stability test, storage at +25° C. in a thermostatic stove up to 6 months; format: physicochemical; conditions: FIG. 4
Method: FIG. 3 depicts SAMe ion content analysis in a product stability test, storing samples at 25° C. in a thermostatic stove up to 6 months. The test measured the SAMe ion content (as percent loss of SAMe ion) in the (SS)SAMe inositol hexaphosphate salt (samples AT1003 and AT1005), the commercial SAMe 1,4-butanedisulphonate salt (sample SD4Test1), the commercial SAMe Pates salt (S1S1057B) and the SAMe-metal-phytate complex obtained according to EP1896489 (sample 04B17DS).
FIG. 4 further depicts SAMe ion content analysis in a product stability test for diastereomeric purity, storing samples at 25° C. in a thermostatic stove up to 6 months. The test measured the (SS)SAMe diastereoisomer ion content (as percent loss of (SS)SAMe diastereomer) in the (SS)SAMe inositol hexaphosphate salt (samples AT1003 and AT1005), and also in the commercial SAMe 1,4-butanedisulphonate salt (sample SD4Test1), the commercial SAMe Pates salt (S1S1057B) and the SAMe-metal-phytate complex obtained according to EP1896489 (sample 04B17DS).
Some samples of the products obtained as described in the previous examples are subjected to stability tests, storing them at +25° C., in a thermostatic stove. […]

[2] = Pharmacokinetic profile in the rat (SAMe blood levels, AUC); format: in vivo, Sprague Dawley rats; conditions: by cannula in water, 134 mg/kg and 95 mg/kg, compared with SAMe Pates at equal SAMe ion dose
Method: 70 Sprague Dawley rats (35 male and 35 female), aged 7-9 weeks and weighing 176-200 g, were acclimatized in a cage for two weeks before the start of the treatment, maintained at +22° C. and 55% relative humidity. The rats were fed on 4RF 21 (Mucedola) feed, and weighed before the beginning and at the end of the test. At the time of treatment, 32 animals per group (16 males and 16 females) were selected from those with the most similar weights, and assigned to the two treatments.
The product was administered by cannula, dissolved in water, at two dose levels, namely 134 mg/kg and 95 mg/kg. The rats were fasted overnight before administration and for a further two hours after administration. The two equimolar doses guaranteed an equal intake of SAMe ion.
The blood levels of SAMe were assayed by taking a sample from the tail vein at fixed intervals, at times 0 (pre-administration), 0.5, 1, 1.5, 2, 4, 8 and 24 hours after administration. The blood samples were centrifuged after addition of EDTA to separate the plasma from the cell fraction. The plasma was then analysed by HPLC according to the method reported in Wise, Fullerton J. Liq. Chromatogr. […]
The SAMe plasma concentration values are also used to determine, according to the Area Under Curve (AUC) calculation, the total quantity of active ingredient absorbed, obtaining the values set out in FIG. 2.

[3] = accelerated stability test, thermostatic stove at +55° C., 5 days; format: physicochemical
Method: The product obtained as described in Example 6 (comprising SAMe and phytic acid) and a sample of SAMe inositol hexaphosphate obtained as described in Example 5 are subjected to an accelerated stability test, incubated in a thermostatic stove at +55° C., and the analyses are repeated after 5 days.
The samples are analysed for the following values:
SAMe ion content (total of all enantiomers) determined by HPLC and expressed as % by weight enantiomeric purity, determined by HPLC and expressed as % of (SS) isomer active ingredient content, calculated by multiplying the previous two values and expressed as % by weight of (SS)SAMe overall purity, determined by HPLC as SAMe area/total area of chromatogram, expressed as area %. The figure comprises the values of all known degradation impurities.

Compound: C[S@@+](CC[C@H](N)C(=O)[O-])C[C@H]1O[C@@H](n2cnc3c(N)ncnc32)[C@H](O)[C@@H]1O.O=P(O)(O)O[C@H]1[C@H](OP(=O)(O)O)[C@@H](OP(=O)(O)O)[C@H](OP(=O)(O)O)[C@@H](OP(=O)(O)O)[C@H]1OP(=O)(O)O [AT1003, (SS)-adenosyl methionine with myo-inositol 1,2,3,4,5,6 hexakisphosphate]
- (SS)SAMe isomer content stability (percent loss of (SS)SAMe diastereomer) [1]: stable for longer
- plasma concentration of active ingredient (SAMe) ([2]; FIG. 1): higher plasma concentration
- absorption (AUC 8 hours of SAMe plasma concentration) ([2]; FIG. 2): better absorption
- content of the active ingredient (SS)SAMe after the stress test ([3]; 5 days at +55° C., compared with 04B17DS): maintains a higher content
- degradation by isomerization after the stress test ([3]; 5 days at +55° C., comparison of AT1003 and 04B17DS): surprisingly lower
- (SS) enantiomer (enantiomeric purity, HPLC), final value ([3]; after 5 days at +55° C.): 69.56%
- SAMe content (SAMe ion, total of all enantiomers, HPLC), final value ([3]; after 5 days at +55° C.): 30.6% w/w
- Purity (% area), final value ([3]; after 5 days at +55° C., HPLC SAMe area/total area): 90.0% area
- (SS)SAMe content (active ingredient content), final value ([3]; after 5 days at +55° C., SAMe content x enantiomeric purity, % by weight): 21.28%
- (SS) enantiomer (enantiomeric purity, HPLC), starting value ([3]; before incubation at +55° C.): 77.2%
- SAMe content (SAMe ion, total of all enantiomers, HPLC), starting value ([3]; before incubation at +55° C.): 34.45% w/w
- Purity (% area), starting value ([3]; before incubation at +55° C., HPLC SAMe area/total area): 95.98% area
- (SS)SAMe content (active ingredient content), starting value ([3]; before incubation at +55° C., SAMe content x enantiomeric purity, % by weight): 26.59%
